Drawing on patent publication US20080152632A1, “Promoter-reporter cells for determining drug metabolism, drug interactions, and the effects of allotype variation” (Roslin Institute, priority 2005, published 2008), this text covers AFP-eGFP reporter expression for two molecules.

The subject of the experiment is AFP promoter in hepatocyte lineage cells. Description: AFP-eGFP reporter signaling in hepatocyte lineage cells generated using Activin. The class given is cell-based, human. The note with it: H1-LZ-hAFP-eGFP derived cells; factor in HCM medium with HGF and EGF (1 μM dexamethazone from Day 11; 25 ng/mL Oncostatin M from Day 20). The method, then:
The H1-LZ-hAFP-eGFP line of hES cells (Example 2) were expanded in mEF conditioned medium supplemented with 8 ng/mL bFGF on Matrigel™-coated plates. Once they reached 90-95% confluence, the cells were fed and cultured for one day (designated Day 1) with RPMI 1640 containing B27 supplement without vitamin A (GibcoBRL/Invitrogen # 12587-010), 1 mM sodium butyrate (Sigma Cat. no. B5887), and 100 ng/mL Activin A (R&D Systems #338-AC-025), and then for another two days in the same medium except having 0.5 mM sodium butyrate (Stage I). There was substantial cell death, with the remaining cells now having mesenchymal cell morphology, and some forming rosettes.
Starting on Day 4, the cells were fed daily with Knockout DMEM (GibcoBRL/Invitrogen #10829-018) containing 20% Knockout Serum Replacement (GibcoBRL/Invitrogen #10828-028), 2 mM L-glutamine, 1×nonessential amino acids, 0.1 mM β-mercaptoethanol, and 1% DMSO (Stage II). […] Starting on Day 20, the cells were fed on alternate days with HCM Bullet Kit, supplemented with 10 ng/mL human HGF, 10 ng/mL human EGF, and 25 ng/mL human Oncostatin M (Stage V).
In response to the medium components introduced on Day 11, about 60-70% of the cells began expressing eGFP, peaking by Day 19 or 20. Following the change of medium components on […], eGFP expression gradually disappeared.

For the molecule `C[C@@H]1C[C@H]2[C@@H]3CCC4=CC(=O)C=C[C@]4(C)[C@@]3(F)[C@@H](O)C[C@]2(C)[C@@]1(O)C(=O)CO` [dexamethazone], the AFP-eGFP reporter expression entry is recorded as “expressed”.

B1: Oncostatin M: human Oncostatin M, late differentiation factor (protein, UniProt P13725 26-221, looked up)
Oncostatin-M: AAIGSCSKEYRVLLGQLQKQTDLMQDTSRLLDPYIRIQGLDVPKLREHCRERPGAFPSEETLRGLGRRGFLQTLNATLGCVLHRLADLEQRLPKAQDLERSGLNIEDLEKLQMARPNILGLRNNIYCMAQLLDNSDTAEPTKAGRGASQPPTPTPASDAFQRKLEGCRFLHGYHRFMHSVGRVFSKWGESPNRSRR
For B1, the AFP-eGFP reporter expression entry is “decreased”.
